PMC6100472, “Cyclodextrins: Assessing the Impact of Cavity Size, Occupancy, and Substitutions on Cytotoxicity and Cholesterol Homeostasis” (Molecules : A Journal of Synthetic Chemistry and Natural …, 2018)
Converted amounts (≈) assume the structure as drawn.

Key:
[1] = test system: whole blood (erythrocytes); assay: In vitro hemolysis test in whole blood samples; type: cell-based, human; conditions: RBC count 1 × 10^9
Procedure: For these experiments, healthy volunteers with identical main blood groups [A, Rhesus blood factor D (Rh) positive] but differing in their plasma lipid contents were selected. Plasma and cellular blood components were separated from the freshly taken sodium-citrated blood by centrifugation (2500× g, 10 min, 4 °C). The sedimented composite cellular fraction (red and white blood cells, and platelets) was washed with PBS, then re-suspended either in their own original plasma or in the foreign plasma with the identical blood group, resulting in erythrocyte/plasma combinations of normal cholesterol/lipid levels or higher cholesterol/lipid levels. The erythrocyte count was adjusted to 4 × 10^9 per mL in the blood. In this case, hemolysis test mixtures contained 0.04 mL of test solution with increasing concentrations of methyl-β-CD, 0.25 mL of blood, and 0.01 mL of 3% Na2CO3. Incubation and subsequent centrifugation conditions were identical to the above. Aliquots of the supernatant were diluted using PBS (containing 3% Na2CO3), and their hemoglobin content was determined. Again, dose-effect curves were constructed from multi-point determinations of triplicate runs. The levels of cholesterol, high-density lipoprotein (HDL), and triglyceride in plasma were determined by the use of standard laboratory procedures.

[2] = test system: isolated human erythrocytes; assay: In vitro hemolysis test using isolated human erythrocytes; type: cell-based
Procedure: Venous blood was taken from healthy volunteers and placed in plastic tubes containing sodium–citrate anti-coagulant. The cell fraction including erythrocytes was separated from the plasma components by centrifugation (2500× g, 10 min, 20 °C), washed three times with phosphate buffered saline (PBS) solution, and re-suspended in the same solution. The erythrocyte count was adjusted to 10^9 per mL under the control of a Laborscale cell analyzer (Medicor, Hungary). The test was performed in standard Eppendorf-type plastic tubes, where the incubation mixture consisted of 1.3 mL of reagent solution containing increasing concentrations of CDs dissolved in PBS, 0.05 mL of erythrocyte suspension containing 5 × 10^7 red blood cells, and 0.05 mL of 3% Na2CO3. After 10 min incubation at 37 °C, samples were mixed and centrifuged at 5000x g. The absorbance of the released hemoglobin in the supernatant was determined at 540 nm spectrophotometrically. As a reference, total (100%) hemolysis was obtained by replacing PBS with distilled water. CD-induced hemolysis was related to this reference value and expressed as percent hemolysis. All of the experiments included at least 10 different concentrations of the test materials in triplicate runs to allow the plotting of dose-effect curves from multi-point determinations, and to calculate EC50 values. In order to investigate the protective effect of plasma components, aliquots of PBS were replaced by 50 µL, 100 µL, and 200 µL of blood plasma in the incubation mixture. Plasma protein concentration was determined by the biuret method.

[3] = test system: primary fibroblast cells from an NPC patient (NPC1 mutant); assay: Intracellular cholesterol distribution by Filipin III staining; type: cell-based, human; conditions: 1 mM, 72 h, NPC1 mutant primary fibroblasts
Procedure: We determined the effects of the CD derivatives on intracellular cholesterol accumulation in primary fibroblast cells derived from an NPC patient using Filipin III, a fluorescent compound that specifically binds to unesterified cholesterol. After treatment with the CD derivatives (1 mM) for 72 h, the cells were examined for the fluorescent intensity of Filipin III using a fluorescence microscope. […] Studies are underway to define the molecular mechanisms by which HPβCD and HPγCD alleviate the cholesterol-trafficking defect. Cells were incubated in medium containing CD derivatives at 1 mM for 72 h. Cells were washed three times with PBS and fixed with 3.7% paraformaldehyde for 30 min at room temperature. After washing with PBS, cells were stained with PBS containing Filipin III (12.5 μg/mL) for 30–45 min at room temperature in the dark. After washing with PBS and applying a mounting medium, cells were analyzed using a Nikon TE2000 widefield microscope (Nikon, Melville, NY, USA).

HeLa cells = assay: MTS cell viability assay (CellTiter 96 AQueous One) in HeLa cells; type: cell-based, human; conditions: 10 mM, 24 h
Procedure: (§1) The CD/lipid inclusion complexes were then tested for their ability to reduce the metabolic activity (or cell viability) in HEK293T cells and HeLa cells (Figure 4) using the CellTiter 96 AQueous One Solution Cell Proliferation Assay Kit (Promega). Cells were treated with 10 mM of the free RAMEB, cholesterol-loaded RAMEB, linoleic acid-loaded RAMEB, or β-sitosterol-loaded RAMEB. At 24 h after treatment, a cell viability assay was conducted, and the absorbance at 490 nm was measured to determine the levels of the reaction products that were generated in metabolically active cells. Triton X-100 (TX) was included as a positive control for cytotoxicity. […]
(§2) The effects of CD treatment on cell viability and cytotoxicity were determined using the CellTiter 96 AQueous One Solution Cell Proliferation Assay Kit (Promega) and LDH Cytotoxicity Assay Kit (Thermo Fisher Scientific), respectively. […] The absorbance of the plates was recorded at 490 nm with an xMark microplate absorbance spectrophotometer (Bio-Rad, Hercules, CA, USA). […] Extracellular LDH in the media can be quantified by a coupled enzymatic reaction in which LDH catalyzes the conversion of lactate to pyruvate via nicotinamide adenine dinucleotide (NAD^+) reduction to NADH. Diaphorase then uses NADH to reduce a tetrazolium salt (INT) to a red formazan product that can be measured at 490 nm. […]

HEK293T cells = assay: MTS cell viability assay (CellTiter 96 AQueous One) in HEK293T cells; type: cell-based, human; conditions: 10 mM, 24 h
Procedure: as §1, §2

[4] = isolated human erythrocytes in PBS, no plasma
[5] = isolated human erythrocytes in PBS, plasma 50 μL
[6] = isolated human erythrocytes in PBS, plasma 100 μL
[7] = isolated human erythrocytes in PBS, plasma 200 μL

Compound | Hemolytic EC50 [2, 4] [µg/mL] | Hemolytic EC50 [2, 5] [µg/mL] | Hemolytic EC50 [2, 6] [µg/mL] | Hemolytic EC50 [2, 7] [µg/mL] | Effect on intracellular cholesterol accumulation (Filipin III fluorescence) [3] | other results
COC[C@H]1O[C@@H]2O[C@H]3[C@H](O)[C@@H](OC)[C@@H](O[C@H]4[C@H](O)[C@@H](OC)[C@@H](O[C@H]5[C@H](O)[C@@H](OC)[C@@H](O[C@H]6[C@H](O)[C@@H](OC)[C@@H](O[C@H]7[C@H](O)[C@@H](OC)[C@@H](O[C@H]8[C@H](O)[C@@H](OC)[C@@H](O[C@H]1[C@H](O)[C@H]2OC)O[C@@H]8COC)O[C@@H]7COC)O[C@@H]6COC)O[C@@H]5COC)O[C@@H]4COC)O[C@@H]3COC [DIMEB-50, Heptakis (2,6-di-O-methyl)-β-cyclodextrin] | 1200 ± 200 | 8500 ± 200 | 9400 ± 400 | 11900 ± 300 | – | Hemolytic EC50 ([1]; plasma CHO 2.22 mM, HDL 1.13 mM, TG 0.48 mM): 18000 ± 200 µg/mL; Hemolytic EC50 ([1]; plasma CHO 4.38 mM, HDL 0.58 mM, TG 1.08 mM): 22400 ± 400 µg/mL; EC50DIMEB (hemolytic potency) ([2]; 5 mg/mL BSA (Figure 2)): 1380 µg/mL (≈ 1040 µM); EC50DIMEB (hemolytic potency) ([2]; 10 mg/mL bovine serum albumin (BSA) (Figure 2)): 1530 µg/mL (≈ 1150 µM); EC50DIMEB (hemolytic potency) ([2]; 100-µL plasma resulting in 5 mg/mL protein concentration in the mixture (Figure 2)): 9380 µg/mL; EC50DIMEB (hemolytic potency) ([2]; 200-µL plasma resulting in 10 mg/mL protein concentration in the mixture (Figure 2)): 11960 µg/mL; Hemolytic EC50 ([2]; RBCs-washed, 200 μL plasma added, plasma CHO 0.76 mM, HDL 0.25 mM, TG 0.13 mM, RBC count 5 × 10^7): 12600 ± 200 µg/mL; Hemolytic EC50 ([2]; RBCs-washed, no plasma added, RBC count 5 × 10^7): 1320 ± 100 µg/mL
COC[C@H]1O[C@@H]2O[C@H]3[C@H](OC)[C@@H](OC)[C@@H](O[C@H]4[C@H](OC)[C@@H](OC)[C@@H](O[C@H]5[C@H](OC)[C@@H](OC)[C@@H](O[C@H]6[C@H](OC)[C@@H](OC)[C@@H](O[C@H]7[C@H](OC)[C@@H](OC)[C@@H](O[C@H]8[C@H](OC)[C@@H](OC)[C@@H](O[C@H]1[C@H](OC)[C@H]2OC)O[C@@H]8COC)O[C@@H]7COC)O[C@@H]6COC)O[C@@H]5COC)O[C@@H]4COC)O[C@@H]3COC [TRIMEB, Heptakis (2,3,6-tri-O-methyl)-β-cyclodextrin] | 7300 ± 200 | 11300 ± 300 | 14700 ± 400 | 19000 ± 200 | – | –
COC[C@H]1O[C@@H]2O[C@H]3[C@H](O)[C@@H](OC)[C@@H](O[C@H]4[C@H](O)[C@@H](OC)[C@@H](O[C@H]5[C@H](O)[C@@H](OC)[C@@H](O[C@H]6[C@H](O)[C@@H](OC)[C@@H](O[C@H]7[C@H](O)[C@@H](OC)[C@@H](O[C@H]8[C@H](O)[C@@H](OC)[C@@H](O[C@H]1[C@H](O)[C@H]2OC)O[C@@H]8COC)O[C@@H]7COC)O[C@@H]6COC)O[C@@H]5COC)O[C@@H]4COC)O[C@@H]3COC [DIMEB-95, Heptakis (2,6-di-O-methyl)-β-cyclodextrin] | 1200 ± 300 | 4700 ± 400 | 6500 ± 600 | 8800 ± 500 | – | –
CC(O)COC[C@H]1O[C@@H]2O[C@H]3[C@H](O)[C@@H](O)[C@@H](O[C@H]4[C@H](O)[C@@H](O)[C@@H](O[C@H]5[C@H](O)[C@@H](O)[C@@H](O[C@H]6[C@H](O)[C@@H](O)[C@@H](O[C@H]7[C@H](O)[C@@H](O)[C@@H](O[C@H]8[C@H](O)[C@@H](O)[C@@H](O[C@H]1[C@H](O)[C@H]2O)O[C@@H]8COCC(C)O)O[C@@H]7COCC(C)O)O[C@@H]6COCC(C)O)O[C@@H]5COCC(C)O)O[C@@H]4COCC(C)O)O[C@@H]3COCC(C)O (stereo partly drawn) [HPβCD, Hydroxypropyl-β-cyclodextrin] | – | – | – | – | reduction in cholesterol accumulation | –
Randomly methylated β-cyclodextrin [RAMEB] | 2300 ± 300 | 5200 ± 300 | 7000 ± 400 | 9700 ± 500 | – | Effect on cell viability (metabolic activity) (HeLa cells): significant reduction in metabolic activity; Effect on cell viability (metabolic activity) (HEK293T cells): significant reduction in metabolic activity
Hydroxypropyl-γ-cyclodextrin [HPγCD] | – | – | – | – | reduction in cholesterol accumulation | –
